Assay results: patent publication US4206225A, “2,10-Disubstituted dibenzo[b,d]pyrans and benzo[c]quinolines” (priority 1978, dated 1980)
Where two headings read alike, the source gives them in different places.

Legend:
[1] = tested on: phenylbenzoquinone irritant-induced writhing in mice; experiment: Suppression of phenylbenzoquinone (PBQ) irritant-induced writhing; assay type: in vivo, mice (Carworth Farms CF-1); settings: Mus musculus, read-out: ED50 in PBQ Writhing Test
Procedure: The analgesic properties of the compounds of this invention are determined by tests using thermal nociceptive stimuli, such as the mouse tail flick procedure, or chemical nociceptive stimuli, such as measuring the ability of a compound to suppress phenylbenzoquinone irritant-induced writhing in mice. These tests and others are described below.
Suppression of Phenylbenzoquinone Irritant-Induced Writhing
Groups of 5 Carworth Farms CF-1 mice are pretreated subcutaneously or orally with saline, morphine, codine or the test compound. Twenty minutes (if treated subcutaneously) or fifty minutes (if treated orally) later, each group is treated with intraperitoneal injection of phenylbenzoquinone, an irritant known to produce abdominal contractions. The mice are observed for 5 minutes for the presence or absence of writhing starting 5 minutes after the injection of the irritant. MPE50 's of the drug pretreatments in blocking writhing are ascertained.
(§1) Results of the above tests are recorded as percent maximum possible effect (% MPE). The % MPE of each group is statistically compared to the % MPE of the standard and the predrug control values. The % MPE is calculated as follows: [formula]
(§2) The analgesic activity is reported in terms of MPE50, the dose at which half of the maximal possible analgesic effect is observed in a given test.
The analgesic activity of several compounds of the invention in the above described test for suppresion of phenylbenzoquinone (PBQ) irritant-inducedwrithing are set forth below in Table I.

[2] = tested on: rabbits; settings: 20 mg./kg.; cited from earlier work
[3] = tested on: animal pharmacology; settings: in vivo; cited from earlier work
[4] = tested on: thermal nociceptive stimulus (hot plate, 57° C.) in mice; experiment: Mouse hot plate analgesic testing; assay type: in vivo; settings: s.c.
Procedure: (a) Mouse Hot Plate Analgesic Testing
The method used is modified after Woolfe and MacDonald, J. Pharmacol. Exp. Ther., 80, 300-307 (1944). A controlled heat stimulus is applied to the feet of mice on a 1/8" think aluminum plate. A 250 watt reflector infrared heat lamp is place under the bottom of the aluminum plate. A thermal regulator, connected to thermistors on the plate surface, programs the heat lamp to maintain a constant temperature of 57° C. Each mouse dropped into a glass cylinder (61/2" diameter) resting on the hot plate, and timing is begun when the animal's feet touch the plate. At 0.5 and 2 hours after treatment with the test compound the mouse is observed for the first "flicking" movements of one or both hind feet or until 10 seconds elapse without such movements. Morphine has an MPE50 =4-5.6 mg./kg. (s.c.).
as §1, §2

[5] = tested on: thermal nociceptive stimulus (heat applied to the tail) in mice; experiment: Mouse tail flick analgesic testing; assay type: in vivo; settings: s.c.
Text: (b) Mouse Tail Flick Analgesic Testing
Tail flick testing in mice is modified after D'Amour and Smith, J. Pharmacol. Exp. Ther., 72, 74-79 (1941), using controlled high intensity heat applied to the tail. Each mouse is placed in a snug-fitting metal cylinder, with the tail protruding through one end. This cylinder is arranged so that the tail lies flat over a concealed heat lamp. At the onset of testing, an aluminum flag over the lamp is drawn back, allowing the light beam to pass through the slit and focus onto the end of the tail. A timer is simultaneously activated. The latency of a sudden flick of the tail is ascertained. Untreated mice usually react within 3-4 seconds after exposure to the lamp. The end point for protection is 10 seconds. Each mouse is tested at 0.5 and 2 hours after treatment with morphine and the test compound. Morphine has an MPE5 50 of 3.2-5.6 mg./kg. (s.c.).
as §1, §2

[6] = sc, subcutaneous, twenty minutes pretreatment
[7] = oral, fifty minutes pretreatment

CC(CCCc1ccccc1)c1cc2c(cc1O)C1C(O)CCCC1C(C)(C)O2 (mixture of isomers) [Example 11, dl-cis-6a,7,8,9,10a-Hexahydro-2,10-dihydroxy-6,6-dimethyl-3-(1-methyl-4-phenylbutyl)-6H-dibenzo[b,d]pyran]
ED50 [1, 6]: 27 mg/kg

CC(CCCc1ccccc1)c1cc2c(cc1O)C1=C(CCCC1)C(C)(C)O2 (racemic) [Example 16, dl-7,8,9,10-Tetrahydro-2-hydroxy-6,6-dimethyl-3-(1-methyl-4-phenylbutyl)-6H-dibenzo[b,d]pyran]
ED50 [1, 7]: 10 mg/kg

CC(CCCc1ccccc1)c1cc2c(cc1O)C1=C(CCCC1O)C(C)(C)O2 (racemic) [Example 21, dl-7,8,9,10-Tetrahydro-2,10α-dihydroxy-6,6-dimethyl-3-(1-methyl-4-phenylbutyl)-6H-dibenzo[b,d]pyran]
ED50 [1, 7]: 10 mg/kg

CC(CCCc1ccccc1)c1cc2c(cc1O)[C@@H]1C(=O)CCC[C@@H]1C(C)(C)O2 (relative stereo) [Example 9A, dl-cis-6a,7,8,9,10,10a-Hexahydro-2-hydroxy-6,6-dimethyl-3-(1-methyl-4-phenylbutyl)-10-oxo-6H-dibenzo[b,d]pyran]
ED50 [1, 6]: 10 to 32 mg/kg

CCCCCc1cc2c(cc1O)C1=C(CCC(C)C1)C(C)(C)O2 (centres unmarked) [6,7,8,9-tetrahydro-2-hydroxy-3-n-amyl-6,6,9-trimethyldibenzo[b,d]pyran]
activity in rabbits [2]: inactive

CCCCCc1cc(O)c2c(c1)N(C)C(C)(C)C1=C2CC(C)CC1 (centres unmarked) [7,8,9,10-tetrahydro-1-hydroxy-5,6,6,9-tetramethyl-3-n-pentylphenanthridine]
activity in animal pharmacology [3]: completely inert

CN1CC[C@]23c4c5ccc(O)c4O[C@H]2[C@@H](O)C=C[C@H]3[C@H]1C5 [Morphine]
MPE50 [4]: 4 to 5.6 mg/kg | MPE50 (printed MPE5 50) [5]: 3.2 to 5.6 mg/kg
